Source: patent US8163870B2, “Channel forming peptides” (Kansas State University Research Foundation, priority 2000, dated 2012)

Key:
MDCK cells = type: cell-based, canine; conditions: peptide at 500 μM
Text: Cell culture: MDCK cells were a generous gift of Dr. Lawrence Sullivan (Kansas University Medical Center, Kansas City, Kans.). T84 cells were obtained from Dr. Daniel Devor (University of Pittsburgh, Pittsburgh, Pa.). MDCK and T84 cells were maintained with similar culture procedures. The culture medium was a 1:1 mixture of DMEM and Ham's F-12 (Gibco BRL, Grand Island, N.Y.) supplemented with 5% heat inactivated fetal bovine serum (BioWhittaker, Walkersville, Md.), and 1% penicillin and streptomycin (Gibco BRL). Cells were grown in plastic culture flasks in a humidified environment with 5% CO2 at 37° C. and passaged every 5-7 days. For Ussing chamber experiments, cells were plated on 1.13 cm^2 permeable supports (Snapwell™, Costar®, Cambridge, Mass.) at a density of approximately 1×10^6 cells/well and incubated in DMEM/F-12 supplemented with FBS and antibiotics (changed every other day) for 2-3 weeks prior to being mounted in modified Ussing flux chambers.
To form monolayers, the cells were plated onto the upper surface of a permeable membrane that forms the bottom of a plastic well. Two types were used. One was the Transwell™ insert (Costar®, Cambridge, Mass.) supported in a six-well tissue culture plate and the other type was the Snapwell™ (Costar®, Cambridge, Mass.). During incubation, the medium was replaced at 48-72 hour intervals. Confluent monolayers formed within 72 hours. Experiments were performed on the monolayers 6-9 days after the initial plating. Net fluid secretion responses were optimal after six days.
Solutions: Ringer solution was made fresh daily. The final concentration (in mM) was 120 NaCl, 25 NaHCO3 3.3 KH2HPO4, 0.8 K2HPO4, 1.2 MgCl2, 1.2 CaCl2, (290±2 mOsmol). All components of the Ringer solution were from Sigma (St. Louis, Mo.).
(§1) Epithelial electrical measurements: Transepithelial ion transport was evaluated in a modified Ussing chamber (Model DCV9, Navicyte, San Diego, Calif.). The Ussing chamber's fluid resistance compensation was completed in Ringer solution (see below). For electrical measurements cell monolayers were bathed in Ringer solution maintained at 37° C. and continuously bubbled with 5% CO2:95% O2. The transepithelial membrane potential (Vte) was clamped to zero and the transepithelial short circuit current (Isc), an indicator of net ion transport, was measured continuously with a voltage clamp apparatus (Model 558C, University of Iowa, Department of Bioengineering, Iowa City, Iowa). Data were digitally acquired at 1 Hz with a Macintosh computer (Apple Computer, Cuppertino, Calif.) using Aqknowledge software (ver. 3.2.6, BIOPAC Systems, Santa Barbara, Calif.) with an MP100A-CE interface.
as §1, with “Transepithelial” for “Epithelial electrical measurements: Transepithelial”, “(composition (in mM) was 120 NaCl, 25 NaHCO3 3.3 KH2HPO4, 0.8 K2HPO4, 1.2 MgCl2, 1.2 CaCl2).” for “(see below).”
MDCK cell monolayers (in the presence of 1-EBIO to maximize basolateral membrane K^+ conductance) were exposed on the apical aspect to escelating peptide concentrations. Maximal change in Isc (relative to the Isc prior to peptide exposure) was recorded following each increment in apical peptide concentration. […]

cultured CF monolayers = assay: Glutathione transport in cultured CF monolayers; type: cell-based
[1] = Chemical cross-linking (BS3) and SDS-PAGE, oligomeric state of peptide in solution; type: physicochemical; conditions: SDS-PAGE
Description: Chemical cross-linking: In order to visualize the oligomeric state of the peptide in solution a chemical cross-linking protocol was developed. Calculated amounts of each peptide were weighted out and dissolved in 1 mL of distilled water to make 1 mM stock solutions. A 100 mM stock solution of the chemical crosslinking reagent Bis[Sulfosuccinimidyl]suberate, BS^3, (Pierce Chemical Co., Rockford, Ill.) was prepared in dimethyl sulfoxide (DMSO). […] Sample were allowed to sit at room temperature for 15 minutes. 1-6 μL of 100 mM BS^3 was then added to the previously prepared peptide such that the crosslinking reagent was present in 20-fold excess. The final volume for each reaction was 100 μL. […] Each sample was then vacuum dried. Later dry samples were re-dissolved in 60 μL of distilled water along with 60 μL of a 2×-tricine SDS sample buffer (Novex, San Diego). All samples were then boiled at 100° C. for 5 minutes. 5 μL aliquots of each SDS boiled sample was then loaded into separate lanes of pre-cast, 1.0 mm, 10 well, 10-20% tricine gels (Novex, San Diego). Pre-made Novex tricine-SDS buffer was used in the electrophoresis. The reference well contained 1 μL of MultiMark® multi-colored molecular weight standard (Novex, San Diego). The electrophoresis was carried out at a constant 110 Volts for 90 minutes. […]

[2] = system: tight junction-associated proteins (actin, ZO-1, occludin) in MDCK monolayers; assay: Confocal microscopy, immunolocalization of tight-junction associated proteins; type: cell-based, canine; conditions: peptides 100 μM; EDTA 6 mM and hypotonic Ringer
Description: Confocal microscopy. Immunoreactivity to antibodies raised against tight-junction associated proteins was assessed by confocal microscopy (Zeiss, Thornwood, N.Y.). Samples for visualization were prepared from monolayers used in electrophysiological studies. After removal from Ussing chambers, monolayers were washed in Ringer solution and fixed overnight in 10% neutral buffered formalin. Monolayers were washed 3 times in PBS, permeabilized with 0.1% Triton X-100 in PBS, blocked with goat serum, and then exposed to primary antibody in a 1:500 dilution (rat anti-ZO-1, cat# MAB120, Chemicon, Temecula, Calif. or rabbit anti-occludin, cat.# 71-1500; Zymed, San Francisco, Calif.) for 1 hour at room temperature. After being washed 3 times in PBS, FITC-conjugated goat anti-rat (cat #AP136F, Chemicon) or goat anti-rabbit (cat #FI-1000; Vector Laboratories, Burlingame, Calif.) secondary antibodies were employed (1:1000 dilution) with exposure occurring for 1 hour at room temperature. TRITC-labeled phalloidin (0.1 mg/ml in methanol; Sigma Chemical Co.) was used for F-actin localization was applied concurrently with the secondary antibody. A KrAr laser was used to excite the fluorophores. Filter sets used for fluorescein were BP485/20 nm for excitation and BP515-540 nm for emission and for rhodamine BP530-585 nm for excitation and LP590 nm for emission.

MDCK monolayers = assay: FITC-dextran permeability assay; type: cell-based, canine; conditions: SEQ ID NO. 27 100 μM; EDTA 3 mM in hypotonic Ringer
Description: Confluent MDCK cell monolayers were washed once with Ringer solution and placed in one of three treatments containing FITC-conjugated dextran (Sigma Chemical Co.) in the apical compartment; 1, Ringer solution in the apical and basolateral compartments; 2, Ringer solution apical and basolateral with SEQ ID No. 27 (also referred to herein as NC-1059) (100 μM) in the apical solution; 3, EDTA (3 mM) in Ringer solution that had been diluted 1:1 with distilled water in both the apical and basolateral compartments. Monolayers are incubated at 37° C. for 60 minutes and the solution in the basolateral well sampled to quantify fluorescently labeled dextran. Monolayers are then washed with Ringer solution to remove peptide, EDTA, and dextran, placed in tissue culture medium and returned to the incubator for two days before the assay was conducted again.
FITC-dextran permeability assay. Epithelial permeability to uncharged solutes of various sizes was assessed with monolayers grown on Snapwell tissue culture inserts as described above. […] Monolayers were incubated at 37° C. for 60 minutes and the solution in the basolateral well was sampled to quantify fluorescently labeled dextran. […]

Compound	Activity profile in MDCK cells (MDCK cells) [at 500 μM μA/cm2]	glutathione transport (cultured CF monolayers)	aggregation state in solution [1]	distribution of actin, occludin and ZO-1 immunoreactivity [2]	permeation of 20 kDa FITC-dextran conjugate (MDCK monolayers)
PARVGLGITTVLTMTTQSSGSRAKKKK (PARVGLGITTVLTMTTQSSGSRAKKKK; Modified Homo sapiens) [SEQ ID No. 2, reference compound]	12.5	active but to a much lesser extent	only trace amounts of aggregates higher than trimer	–	–
O=C(O)CN(CCN(CC(=O)O)CC(=O)O)CC(=O)O [EDTA]	–	–	–	profound changes in localization of the peri-junctional actin ring, as well as the distribution of ZO-1	highest level of permeation
